Experimental data: US20260015350A1, “AZAQUINAZOLINE PAN-KRAS INHIBITORS” (Mirati Therapeutics, Inc., priority 2022, published 2026)

Legend:
[1] = tested on: KRas-mediated phosphorylation of ERK in H358 cells; test: Inhibition of KRas-mediated phosphorylation of ERK (Cisbio HTRF pERK), H358 cells; format: cell-based; conditions: Homo sapiens; for inhibition at 0.1 µM: NCI-H358, 3 h, single point, 100 nM compound, 3 hrs
Description: Inhibition of KRas Phosphorylation of ERK (HTRF) by Exemplary Compounds of Formula (I) Cisbio HTRF Advanced PERK Assay Catalog #64[…] […] Add 10 mL of media to stop trypsinizing. Pipette the cells into a conical bottom 50 mL centrifuge tube and centrifuge 5 min×1000 rpm. […] Re-suspend the cell pellet in media, take a cell count, and then adjust the cell density using fresh media. […] Seed 6,000 cells into cell culture plate with 50 μL media. […] Use Tecan to complete the compound addition. Compounds start from 10 uM top, 3-fold dilution, and 10 doses. The final DMSO concentration is 0.8%. Dispensed 0.2 uM Trametinib as Min control. […] Incubate cell plate for 3 hrs in the incubator. […] Dilute 1 volume of 4× lysis buffer with 3 volumes of deionized water. […] Keep lysis buffer on the ice. […] At the end of the compound treatment, flick-off the media. […] Add 35 μL of lysis buffer per well using a Multidrop Combi. Then place on a plate agitator shaking at 300 rpm at 4° C. for 40 mins. […] Make up the HTRF antibody buffer. For each assay plate, mix 50 μL of d2-conjugate antibody with 950 μL of detection buffer. Similarly, mix 50 μL of Cryptate antibody with 950 μL of detection buffer. Then mix the two diluted antibodies together. […] Dispense 3.4 μL the antibody buffer to wells of an empty assay plate. Seal the plate and centrifuge plate 30 sec×1000 rpm. […] At the end of the 4° C. lysis, centrifuge the lysate plates 3 mins×1500 rpm. […] Use the Bravo to transfer 13.6 μL of lysate from cell culture plate to assay plate. Then incubate assay plate for 2 hrs at room temperature. 8. At the end of incubation, read plate on the Envision after centrifuging plate 30 sec×1000 rpm.

[2] = tested on: KRas-mediated phosphorylation of ERK in H727 cells; test: Inhibition of KRas-mediated phosphorylation of ERK (Cisbio HTRF pERK), H727 cells; format: cell-based; conditions: Homo sapiens; for IC50: NCI-H727, H727 cells, HTRF pERK; for inhibition at 0.1 µM: NCI-H727, 3 h, single point, 100 nM compound, 3 hrs, H727 cells
Outline: (§1)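 Each compound was tested at 10 concentrations, threefold apart with 10 uM the highest, for 3 hrs on 6,000 seeded cells; final DMSO was 0.8% and Trametinib (0.2 uM) served as Min control. Lysed cells were analysed for pERK by HTRF.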

KRas^G12D = target: T1, KRas^G12D (Homo sapiens, UniProt P01116, G12D); test: KRas binding assay (TR-FRET tracer displacement), KRas G12D
T1 construct: Biotinylated KRas (corresponding to amino acids 1-169, produced at Accelegan Inc.); biotin (biotinylated); purchased Accelegan Inc
T1 sequence (P01116 1-169 isoform P01116-2 G12D): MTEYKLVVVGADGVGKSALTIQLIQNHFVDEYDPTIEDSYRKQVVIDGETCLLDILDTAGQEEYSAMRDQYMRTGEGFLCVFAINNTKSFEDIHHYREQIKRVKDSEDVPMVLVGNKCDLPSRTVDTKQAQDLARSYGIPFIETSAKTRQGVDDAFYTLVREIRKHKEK

[3] = tested on: KRas-mediated phosphorylation of ERK in A549 cells; test: Inhibition of KRas-mediated phosphorylation of ERK (Cisbio HTRF pERK), A549 cells; format: cell-based; conditions: Homo sapiens; for inhibition at 0.1 µM: A549, 3 h, single point, 100 nM compound, 3 hrs
Outline: (§2)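 Phosphorylated ERK was quantified by HTRF using d2-conjugate and Cryptate antibodies added to lysates for 2 hrs at room temperature.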

[4] = tested on: KRas-mediated phosphorylation of ERK in AsPC-1 cells; test: Inhibition of KRas-mediated phosphorylation of ERK (Cisbio HTRF pERK), AsPC-1 cells; format: cell-based; conditions: Homo sapiens; for IC50: ASPC1, AsPC-1 cells, HTRF pERK; for inhibition at 0.1 µM: ASPC1, 3 h, single point, 100 nM compound, 3 hrs, AsPC-1 cells
Outline: as §1

KRas^G12V = target: T2, KRas^G12V (Homo sapiens, UniProt P01116, G12V); test: KRas binding assay (TR-FRET tracer displacement), KRas G12V
T2 construct: Biotinylated KRas (corresponding to amino acids 1-169, produced at Accelegan Inc.); biotin (biotinylated); purchased Accelegan Inc
T2 sequence (P01116 1-169 isoform P01116-2 G12V): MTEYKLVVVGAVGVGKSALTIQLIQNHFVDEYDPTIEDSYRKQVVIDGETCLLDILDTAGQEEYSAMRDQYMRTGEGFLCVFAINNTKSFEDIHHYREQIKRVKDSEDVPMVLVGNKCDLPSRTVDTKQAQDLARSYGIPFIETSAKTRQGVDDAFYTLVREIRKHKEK

[5] = tested on: KRas-mediated phosphorylation of ERK in HCT116 cells; test: Inhibition of KRas-mediated phosphorylation of ERK (Cisbio HTRF pERK), HCT116 cells; format: cell-based; conditions: Homo sapiens; for inhibition at 0.1 µM: HCT-116, 3 h, single point, 100 nM compound, 3 hrs
Outline: as §2

[6] = tested on: KRas-mediated phosphorylation of ERK in H460 cells; test: Inhibition of KRas-mediated phosphorylation of ERK (Cisbio HTRF pERK), H460 cells; format: cell-based; conditions: Homo sapiens; for inhibition at 0.1 µM: NCI-H460, 3 h, single point, 100 nM compound, 3 hrs
Outline: as §1

KRas^G12R = target: T3, KRas^G12R (Homo sapiens, UniProt P01116, G12R); test: KRas binding assay (TR-FRET tracer displacement), KRas G12R
T3 construct: Biotinylated KRas (corresponding to amino acids 1-169, produced at Accelegan Inc.); biotin (biotinylated); purchased Accelegan Inc
T3 sequence (P01116 1-169 isoform P01116-2 G12R): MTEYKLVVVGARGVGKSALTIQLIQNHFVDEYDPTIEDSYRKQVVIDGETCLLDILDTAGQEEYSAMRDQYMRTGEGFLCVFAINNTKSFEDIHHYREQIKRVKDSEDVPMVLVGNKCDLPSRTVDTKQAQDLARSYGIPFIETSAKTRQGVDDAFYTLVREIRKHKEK

Structure (SMILES)	inhibition at 0.1 µM [1] [%]	IC50 [2] [nM]	IC50 (KRas^G12D) [nM]	inhibition at 0.1 µM [3] [%]	IC50 [4] [nM]	IC50 (KRas^G12V) [nM]	inhibition at 0.1 µM [5] [%]	inhibition at 0.1 µM [6] [%]	IC50 (KRas^G12R) [nM]	IC50 ([1]; NCI-H358, HTRF pERK) [nM]	IC50 ([3]; HTRF pERK) [nM]	IC50 ([5]; HCT-116, HTRF pERK) [nM]	IC50 ([6]; NCI-H460, HTRF pERK) [nM]	inhibition at 0.1 µM [2] [%]	inhibition at 0.1 µM [4] [%]
CCc1c(F)ccc2cc(O)cc(-c3ncc4c(N5C[C@@H]6C[C@]6(c6nc(C)no6)C5)nc(OC[C@@]56CCCN5C[C@H](F)C6)nc4c3F)c12 [Example 607, 5-ethyl-6-fluoro-4-(8-fluoro-2-(((2R,7aS)-2-fluorotetrahydro-1H-pyrrolizin-7a(5H)-yl)methoxy)-4-((1R,5R)-1-(3-methyl-1,2,4-oxadiazol-5-yl)-3-azabicyclo[3.1.0]hexan-3-yl)pyrido[4,3-d]pyrimidin-7-yl)naphthalen-2-ol]	9	1770	151	34	1740	53	24	62	99	–	–	–	–	–	–
CCc1c(F)ccc2cc(O)cc(-c3ncc4c(N5CCCC(Cn6cccn6)C5)nc(OC[C@@]56CCCN5C[C@H](F)C6)nc4c3F)c12 (stereo partly drawn) [Example 610, 4-(4-(3-((1H-pyrazol-1-yl)methyl)piperidin-1-yl)-8-fluoro-2-(((2R,7aS)-2-fluorotetrahydro-1H-pyrrolizin-7a(5H)-yl)methoxy)pyrido[4,3-d]pyrimidin-7-yl)-5-ethyl-6-fluoronaphthalen-2-ol]	1	660	66	10	884	28	-5	31	48	662	1300	1010	256	–	–
CCc1c(F)ccc2cc(O)cc(-c3ncc4c(NCc5cc(C(=O)N(C)C)nn5CC#N)nc(OC[C@@]56CCCN5C[C@H](F)C6)nc4c3F)c12 [Example 657, 1-(cyanomethyl)-5-(((7-(8-ethyl-7-fluoro-3-hydroxynaphthalen-1-yl)-8-fluoro-2-(((2R,7aS)-2-fluorotetrahydro-1H-pyrrolizin-7a(5H)-yl)methoxy)pyrido[4,3-d]pyrimidin-4-yl)amino)methyl)-N,N-dimethyl-1H-pyrazole-3-carboxamide]	27	2660	4	-2	–	< 2	-9	-18	< 2	–	–	–	–	19	-24
CCc1c(F)ccc2cc(O)cc(-c3ncc4c(N5CCCn6nc(S(=O)(=O)NC)cc6C5)nc(OC[C@@]56CCCN5C[C@H](F)C6)nc4c3F)c12 [Example 676, 5-(7-(8-ethyl-7-fluoro-3-hydroxynaphthalen-1-yl)-8-fluoro-2-(((2R,7aS)-2-fluorohexahydro-1H-pyrrolizin-7a-yl)methoxy)pyrido[4,3-d]pyrimidin-4-yl)-N-methyl-5,6,7,8-tetrahydro-4H-pyrazolo[1,5-a][1,4]diazepine-2-sulfonamide]	-4	5130	2	19	996	6	4	11	5	–	–	–	–	–	–
CCc1c(F)ccc2cc(O)cc(-c3ncc4c(N5CCC[C@@](C)(O)C5)nc(OCC56CNCC5C6)nc4c3F)c12 (stereo partly drawn) [Example 695, (3R)-1-(2-((3-azabicyclo[3.1.0]hexan-1-yl)methoxy)-7-(8-ethyl-7-fluoro-3-hydroxynaphthalen-1-yl)-8-fluoropyrido[4,3-d]pyrimidin-4-yl)-3-methylpiperidin-3-ol]	-1	2690	4	16	1110	5	13	-2	8	–	–	–	–	–	–
CCc1c(F)ccc2cc(O)cc(-c3ncc4c(N5CCC[C@@](C)(O)C5)nc(OCC56CNCCC5C6)nc4c3F)c12 (stereo partly drawn) [Example 697, (3R)-1-(2-((3-azabicyclo[4.1.0]heptan-1-yl)methoxy)-7-(8-ethyl-7-fluoro-3-hydroxynaphthalen-1-yl)-8-fluoropyrido[4,3-d]pyrimidin-4-yl)-3-methylpiperidin-3-ol]	5	4750	4	-4	1860	6	1	19	7	–	–	–	–	–	–
CCc1c(F)ccc2cc(O)cc(-c3ncc4c(N5CCC[C@@](C)(O)C5)nc(OCC56CC5CCN(C)C6)nc4c3F)c12 (stereo partly drawn) [Example 701, (3R)-1-(7-(8-ethyl-7-fluoro-3-hydroxynaphthalen-1-yl)-8-fluoro-2-((3-methyl-3-azabicyclo[4.1.0]heptan-1-yl)methoxy)pyrido[4,3-d]pyrimidin-4-yl)-3-methylpiperidin-3-ol]	6	476	4	20	101	5	0	15	9	–	–	–	–	–	–
CCc1c(F)ccc2cc(O)cc(-c3ncc4c(N5CCC[C@@](C)(O)C5)nc(OCC5(CN(C)C)CC5CC)nc4c3F)c12 (stereo partly drawn) [Example 703, (3R)-1-(2-((1-((dimethylamino)methyl)-2-ethylcyclopropyl)methoxy)-7-(8-ethyl-7-fluoro-3-hydroxynaphthalen-1-yl)-8-fluoropyrido[4,3-d]pyrimidin-4-yl)-3-methylpiperidin-3-ol]	-10	982	5	47	342	7	0	4	14	–	–	–	–	–	–
CCc1c(F)ccc2cc(O)cc(-c3ncc4c(N5CCC[C@@](C)(O)C5)nc(OCC5(CN(C)C)CC5(C)C)nc4c3F)c12 (stereo partly drawn) [Example 704, (3R)-1-(2-((1-((dimethylamino)methyl)-2,2-dimethylcyclopropyl)methoxy)-7-(8-ethyl-7-fluoro-3-hydroxynaphthalen-1-yl)-8-fluoropyrido[4,3-d]pyrimidin-4-yl)-3-methylpiperidin-3-ol]	47	223	5	26	53	5	19	40	11	–	–	–	–	21	25
CCc1c(F)ccc2cc(O)cc(-c3ncc4c(N5CCC[C@@](C)(O)C5)nc(OCC5(CN(C)C)CC56CCC6)nc4c3F)c12 (stereo partly drawn) [Example 705, (3R)-1-[2-[[2-[(dimethylamino)methyl]spiro[2.3]hexan-2-yl]methoxy]-7-(8-ethyl-7-fluoro-3-hydroxy-1-naphthyl)-8-fluoro-pyrido[4,3-d]pyrimidin-4-yl]-3-methyl-piperidin-3-ol]	34	1220	12	29	598	13	-3	0	30	–	–	–	–	3	6
